This is an account of results in patent US8318730B2, “Fused hetrocyclic compounds” (Synta Pharmaceuticals Corporation, priority 2003, dated 2012).

The IC50 is the midpoint of a concentration-inhibition curve.

A value given as a limit tells only on which side of the number the result lay.

One test has as its system IL-12 production. The experiment in a line: In vitro assay of Example 12: inhibition of IL-12 production in IFNγ/LPS- or IFNγ/SAC-stimulated cells, ELISA. The test is classed as cell-based, human. As to conditions: Homo sapiens; assay of Example 12; if more than one assay was performed, only the most active IC50 result is reported. The text has this: The biological activities of a compound can be evaluated by a number of cell-based assays. One of such assays can be conducted using cells from human peripheral blood mononuclear cells (PBMC) or human monocytic cell line (THP-1). The cells are stimulated with a combination of human interferon-γ (IFNγ) and lipopolysaccharide or a combination of IFNγ and Staphylococcus aureus Cowan I in the presence of a test compound. The level of inhibition of IL-12 production can be measured by determining the amount of p70 by using a sandwich ELISA assay with anti-human IL-12 antibodies. IC50 of the test compound can then be determined. Specifically, PBMC or THP-1 cells are incubated with the test compound. Cell viability was assessed using the bioreduction of MTS [3-(4,5-dimethylthiazol-2-yl)-5-(3-carboxymethoxyphenyl)-2-(4-sulfophenyl)-2H-tetrazolium] (Promega, Madison, Wis.).
Staphylococcus aureus Cowan I (SAC) is obtained from Calbiochem (La Jolla, Calif.), and lipopolysaccharide (LPS, Serratia marscencens) is obtained from Sigma (St. Louis, Mo.). Human and mouse recombinant IFNγ are purchased from Boehringer Mannheim (Mannheim, Germany) and Pharmingen (San Diego, Calif.), respectively.
Human PBMC are isolated by centrifugation using Ficoll-Paque (Pharmacia Biotech, Uppsala, Sweden) and prepared in RPMI medium supplemented with 10% fetal calf serum (FCS), 100 U/mL penicillin, and 100 μg/mL streptomycin. PBMC are plated in wells of a 96-well plate at a concentration of 5×10^5 cells/well, and primed by adding IFNγ (30 U/mL) for 22 h and stimulated by adding LPS (1 μg/mL), or by adding IFNγ (100 U/mL) and then stimulated by adding SAC (0.01%). A test quinazoline compound is dissolved in DMSO, and added to wells of the 96-well plate. The final DMSO concentration is adjusted to 0.25% in all cultures, including the compound-free control. Human THP-1 cells are plated in wells, primed by adding IFNγ (100 U/mL) for 22 h and stimulated by adding SAC (0.025%) in the presence of different concentrations of the quinazoline compound. Cell-free supernatants are taken 18 h later for measurement of cytokines. Cell viability is assessed using the bioreduction of MTS. Cell survival is estimated by determining the ratio of the absorbance in compound-treated groups versus compound-free control.
The supernatant is assayed for the amount of IL-12p40, IL-12p70, or IL-10 by using a sandwich ELISA with anti-human antibodies, i.e., a Human IL-12 p40 ELISA kit from R&D Systems (Berkeley, Calif.), and a Human IL-12 p70 or IL-10 ELISA kit from Endogen (Cambridge, Mass.). Assays are based on the manufacturer's instructions.
The biological activities of quinazoline compounds are tested on human PBMC or THP-1 cells.
In general terms: In an ELISA, binding on a coated surface is turned into a signal by an enzyme label.
For the compound `COc1ccc(CCOc2nc(N3CCOCC3)c3cc(-c4ccc(Cl)cc4)ccc3n2)cc1OC` [Compound 30, 6-(4-Chloro-phenyl)-2-[2-(3,4-dimethoxy-phenyl)-ethoxy]-4-morpholin-4-yl-quinazoline], the IC50 was > 1000 nM.

For the compound `COc1ccc(CCOc2nc(N3CCOCC3)c3cc(-c4ccc(C)cc4)ccc3n2)cc1OC` [Compound 21, 2-[2-(3,4-Dimethoxy-phenyl)-ethoxy]-4-morpholin-4-yl-6-p-tolyl-quinazoline], the IC50 amounted to 59 nM.

For `COc1ccc(CCOc2nc(N3CCOCC3)c3cc(Nc4ccccc4C)ccc3n2)cc1OC` [Compound 41, {2-[2-(3,4-Dimethoxy-phenyl)-ethoxy]-4-morpholin-4-yl-quinazolin-6-yl}-o-tolyl-amine], the IC50 is > 10000 nM.

For `COc1ccc(CCOc2nc(N3CCOCC3)c3cc(Oc4cccc(Cl)c4)ccc3n2)cc1OC` [Compound 35, 6-(3-Chloro-phenoxy)-2-[2-(3,4-dimethoxy-phenyl)-ethoxy]-4-morpholin-4-yl-quinazoline], the IC50 was found to be 9900 nM.

For `FC(F)(F)c1cccc(-c2cnc3nc(OCCN4CCOCC4)nc(N4CCOCC4)c3c2)c1` [Compound 43, 4-Morpholin-4-yl-2-(2-morpholin-4-yl-ethoxy)-6-(3-trifluoromethyl-phenyl)-pyrido[2,3-d]pyrimidine], the IC50 was 1400 nM.

Turning to `COCCOc1nc(N2CCOCC2)c2cc(-c3cccc(C)c3)ccc2n1` [Compound 13, 2-(2-Methoxy-ethoxy)-4-morpholin-4-yl-6-m-tolyl-quinazoline], the IC50 amounted to 1820 nM.

As to `Cc1ccccc1Oc1cnc2nc(OCCN3CCOCC3)nc(N3CCOCC3)c2c1` [Compound 46, 4-Morpholin-4-yl-2-(2-morpholin-4-yl-ethoxy)-6-o-tolyloxy-pyrido[2,3-d]pyrimidine], the IC50 was > 1000 nM.

Turning to `Cc1cccc(-c2cnc3nc(OCCN4CCOCC4)nc(N4CCOCC4)c3c2)c1` [Compound 42, 4-Morpholin-4-yl-2-(2-morpholin-4-yl-ethoxy)-6-m-tolyl-pyrido[2,3-d]pyrimidine], the IC50 is > 10000 nM.

Regarding `Fc1ccc(-c2ccc3nc(OCCN4CCOCC4)nc(N4CCOCC4)c3c2)cc1` [Compound 38, 6-(4-Fluoro-phenyl)-4-morpholin-4-yl-2-(2-morpholin-4-yl-ethoxy)-quinazoline], the IC50 is > 10000 nM.

For the compound `c1ccc2oc(-c3cnc4nc(OCCN5CCOCC5)nc(N5CCOCC5)c4c3)cc2c1` [Compound 45, 6-Benzofuran-2-yl-4-morpholin-4-yl-2-(2-morpholin-4-yl-ethoxy)-pyrido[2,3-d]pyrimidine], the half-inhibitory concentration (IC50) came out at 770 nM.

`COc1ccc(CCOc2nc(N3CCOCC3)c3cc(Nc4cccc(C)c4)ccc3n2)cc1OC` [Compound 39, {2-[2-(3,4-Dimethoxy-phenyl)-ethoxy]-4-morpholin-4-yl-quinazolin-6-yl}-m-tolyl-amine]: the IC50 was > 10000 nM.

For `COc1cccc(-c2ccc3nc(OCCc4ccc(OC)c(OC)c4)nc(N4CCOCC4)c3c2)c1` [Compound 25, 2-[2-(3,4-Dimethoxy-phenyl)-ethoxy]-6-(3-methoxy-phenyl)-4-morpholin-4-yl-quinazoline], the IC50 was found to be 400 nM.

As for `Cc1cccc(-c2ccc3nc(OCCO)nc(N4CCOCC4)c3c2)c1` [Compound 18, 2-(4-Morpholin-4-yl-6-m-tolyl-quinazolin-2-yloxy)-ethanol], the IC50 was determined as 162 nM.

For the compound `COc1ccc(CCOc2nc(N3CCOCC3)c3cc(-c4ccc(C)c(C)c4)ccc3n2)cc1OC` [Compound 26, 2-[2-(3,4-Dimethoxy-phenyl)-ethoxy]-6-(3,4-dimethyl-phenyl)-4-morpholin-4-yl-quinazoline], the IC50 turned out to be 107 nM.

In the case of `COc1ccc(CCOc2nc(N3CCOCC3)c3cc(-c4ccc(C(F)(F)F)cc4)ccc3n2)cc1OC` [Compound 32, 2-[2-(3,4-Dimethoxy-phenyl)-ethoxy]-4-morpholin-4-yl-6-(4-trifluoromethyl-phenyl)-quinazoline], the IC50 worked out at 3000 nM.

In the case of `COc1ccc(-c2ccc3nc(OCCc4ccc(OC)c(OC)c4)nc(N4CCOCC4)c3c2)cc1` [Compound 31, 2-[2-(3,4-Dimethoxy-phenyl)-ethoxy]-6-(4-methoxy-phenyl)-4-morpholin-4-yl-quinazoline], the IC50 was 419 nM.

As for `c1ccc(Nc2ccc3nc(OCCN4CCOCC4)nc(N4CCOCC4)c3c2)cc1` [Compound 14, [4-Morpholin-4-yl-2-(2-morpholin-4-yl-ethoxy)-quinazolin-6-yl]-phenyl-amine], the IC50 is 3000 nM.

Regarding `COc1ccc(CCOc2nc(N3CCOCC3)c3cc(-c4ccc(F)cc4)ccc3n2)cc1OC` [Compound 33, 6-(4-Fluoro-phenyl)-2-[2-(3,4-dimethoxy-phenyl)-ethoxy]-4-morpholin-4-yl-quinazoline], the IC50 was > 10000 nM.

Take `COc1ccc(CCOc2nc(N3CCOCC3)c3cc(-c4ccc(C)s4)ccc3n2)cc1OC` [Compound 22, 2-[2-(3,4-Dimethoxy-phenyl)-ethoxy]-6-(5-methyl-thiophen-2-yl)-4-morpholin-4-yl-quinazoline]: the IC50 is 3040 nM.

Regarding `COc1ccc(CCOc2nc(N3CCOCC3)c3cc(-c4cc(C)cc(C)c4)ccc3n2)cc1OC` [Compound 27, 2-[2-(3,4-Dimethoxy-phenyl)-ethoxy]-6-(3,5-dimethyl-phenyl)-4-morpholin-4-yl-quinazoline], the IC50 was found to be 470 nM.

Regarding `c1ccc(Oc2cnc3nc(OCCN4CCOCC4)nc(N4CCOCC4)c3c2)cc1` [Compound 48, 4-Morpholin-4-yl-2-(2-morpholin-4-yl-ethoxy)-6-phenoxy-pyrido[2,3-d]pyrimidine], the IC50 is > 1000 nM.

As for `COc1ccc(CCOc2nc(N3CCOCC3)c3cc(Nc4ccc(C)cc4)ccc3n2)cc1OC` [Compound 40, {2-[2-(3,4-Dimethoxy-phenyl)-ethoxy]-4-morpholin-4-yl-quinazolin-6-yl}-p-tolyl-amine], the IC50 was > 10000 nM.

Take `COc1ccc(CCOc2nc(N3CCOCC3)c3cc(-c4cccc(C)c4)ccc3n2)cc1OC` [Compound 15, 2-[2-(3,4-Dimethoxy-phenyl)-ethoxy]-4-morpholin-4-yl-6-m-tolyl-quinazoline]: the IC50 is 189 nM.

As for `Cc1ccc(-c2cnc3nc(OCCN4CCOCC4)nc(N4CCOCC4)c3c2)cc1C` [Compound 44, 6-(3,4-Dimethyl-phenyl)-4-morpholin-4-yl-2-(2-morpholin-4-yl-ethoxy)-pyrido[2,3-d]pyrimidine], the IC50 was > 10000 nM.

As for `COc1ccc(CCOc2nc(N3CCOCC3)c3cc(Oc4ccc(C)cc4)ccc3n2)cc1OC` [Compound 36, 2-[2-(3,4-Dimethoxy-phenyl)-ethoxy]-4-morpholin-4-yl-6-p-tolyloxy-quinazoline], the IC50 came out at 2600 nM.

Turning to `COc1ccc(CCOc2nc(N3CCOCC3)c3cc(-c4cc5ccccc5o4)ccc3n2)cc1OC` [Compound 28, 6-Benzofuran-2-yl-2-[2-(3,4-dimethoxy-phenyl)-ethoxy]-4-morpholin-4-yl-quinazoline], the half-maximal inhibitory concentration (IC50) worked out at 64 nM.

The test is the same for the next values; noted with them: assay of Example 12; if more than one assay was performed, only the most active IC50 result is reported.
For “2-Methyl-1-(4-morpholin-4-yl-6-m-tolyl-quinazolin-2-yloxy)-propan-2-ol [Compound 17]”, the IC50 turned out to be 370 nM.

Staying with this test, now noted: measured in an assay according to Example 12; human PBMC or THP-1 cells.
On to `COc1cc2nc(N3CCOCC3)nc(N/N=C/c3cccc(C)c3)c2cc1OCCOc1ccccc1` [Compound 9, N-[7-Methoxy-2-morpholin-4-yl-6-(2-phenoxy-ethoxy)-quinazolin-4-yl]-N′-(3-methyl-benzylidene)-hydrazine], for which the IC50 was found to be 800 nM.

As for `COc1cc2nc(N3CCOCC3)nc(Nc3cccc(C)c3)c2cc1OC` [Compound 11, (6,7-Dimethoxy-2-morpholin-4-yl-quinazolin-4-yl)-m-tolyl-amine], the IC50 turned out to be 10000 nM.

For `COc1cc2nc(N3CCOCC3)nc(NC(=O)Nc3cccc(C)c3)c2cc1OC` [Compound 6, 1-(6,7-dimethoxy-2-morpholin-4-yl-quinazolin-4-yl)-3-m-tolyl-urea], the IC50 is 60.5 nM.

As to `COc1cc2nc(N3CCOCC3)nc(NN=Cc3cccc(C)c3)c2cc1OC` [Compound 1, N-(6,7-Dimethoxy-2-morpholin-4-yl-quinazolin-4-yl)-N′-(3-methyl-benzylidene)-hydrazine], the IC50 worked out at 98.8 nM.
